In patent US20100015240A1, “PROCESS FOR PREPARING MICROPARTICLES CONTAINING BIOACTIVE PEPTIDES” (priority 2008, published 2010):

Experiment: Peptide solubility in polyols estimated by visual observation of solutions
Assay type: physicochemical
Conditions: solvent propylene glycol
Text: Solubilities at various concentration ranges were estimated based on visual observations of solutions prepared at the indicated peptide concentration levels listed in Table II.

Measured: Peptide solubility at specified concentration level

C[C@@H](O)[C@@H]1NC(=O)[C@H](CCCCN)NC(=O)[C@@H](Cc2c[nH]c3ccccc23)NC(=O)[C@H](Cc2ccccc2)NC(=O)[C@@H](NC(=O)[C@H](N)Cc2ccccc2)CSSC[C@@H](C(=O)N[C@H](CO)[C@@H](C)O)NC1=O [Octreotide]
Soluble: 100 mg/mL | <10 mg/mL | at 10 mg/mL
